Experimental data from paper PMC9798004 (Frontiers in Psychiatry, 2022).

Key:
GPR109B = molecular target: T1, GPR109B (Homo sapiens, UniProt P49019); experiment: PathHunter β-arrestin assay; format: cell-based; conditions: screen, control agonist; CHO, 37C, 2HR
T1 construct: purchased Eurofins DiscoverX (PathHunter gpcrMAX)

EBI2 = molecular target: T2, EBI2 (Homo sapiens, UniProt P32249); experiment: PathHunter β-arrestin assay; format: cell-based; conditions: screen, control agonist; CHO, RT, 2HR
T2 construct: purchased Eurofins DiscoverX (PathHunter gpcrMAX)
T2 sequence (P32249 whole entry): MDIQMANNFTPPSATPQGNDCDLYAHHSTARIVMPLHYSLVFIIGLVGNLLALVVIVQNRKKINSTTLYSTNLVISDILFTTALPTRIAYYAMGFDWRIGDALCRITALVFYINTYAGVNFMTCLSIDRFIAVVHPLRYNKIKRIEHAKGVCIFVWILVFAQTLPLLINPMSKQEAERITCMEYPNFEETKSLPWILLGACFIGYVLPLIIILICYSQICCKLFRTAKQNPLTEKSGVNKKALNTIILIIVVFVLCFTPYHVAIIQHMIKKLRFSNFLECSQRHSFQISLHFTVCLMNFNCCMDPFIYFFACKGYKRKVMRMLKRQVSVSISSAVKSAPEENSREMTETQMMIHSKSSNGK

DRD2S = DRD2S (Homo sapiens, UniProt P14416); conditions: screen, control agonist; CHO, RT, 2HR
Sequence of DRD2S (P14416 1-414 isoform P14416-2): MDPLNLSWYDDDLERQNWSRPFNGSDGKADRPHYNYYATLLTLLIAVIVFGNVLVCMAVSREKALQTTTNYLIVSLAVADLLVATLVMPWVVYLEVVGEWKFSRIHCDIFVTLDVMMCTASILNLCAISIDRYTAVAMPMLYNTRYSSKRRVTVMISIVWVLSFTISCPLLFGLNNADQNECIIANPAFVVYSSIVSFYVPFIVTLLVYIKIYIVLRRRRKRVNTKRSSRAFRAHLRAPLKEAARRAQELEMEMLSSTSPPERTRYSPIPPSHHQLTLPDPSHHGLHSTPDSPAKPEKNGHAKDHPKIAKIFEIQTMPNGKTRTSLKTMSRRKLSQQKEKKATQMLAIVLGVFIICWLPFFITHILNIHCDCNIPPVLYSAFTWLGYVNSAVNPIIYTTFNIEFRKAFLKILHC

DRD2L = DRD2L (Homo sapiens, UniProt P14416); experiment: PathHunter β-arrestin assay; format: cell-based; conditions: control agonist
Sequence of DRD2L (P14416 whole entry): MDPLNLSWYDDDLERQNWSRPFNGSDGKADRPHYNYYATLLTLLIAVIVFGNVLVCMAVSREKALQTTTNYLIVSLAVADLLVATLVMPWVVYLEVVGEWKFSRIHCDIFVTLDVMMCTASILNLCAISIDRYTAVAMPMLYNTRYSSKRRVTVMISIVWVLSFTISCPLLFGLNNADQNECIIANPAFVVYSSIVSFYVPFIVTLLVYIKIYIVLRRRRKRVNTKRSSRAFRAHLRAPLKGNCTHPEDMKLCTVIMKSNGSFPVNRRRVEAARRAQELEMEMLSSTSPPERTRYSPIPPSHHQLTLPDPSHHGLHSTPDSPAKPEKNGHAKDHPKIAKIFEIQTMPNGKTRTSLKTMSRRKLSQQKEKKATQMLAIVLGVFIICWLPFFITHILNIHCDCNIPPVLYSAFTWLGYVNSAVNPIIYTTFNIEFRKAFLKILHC

FFAR1 = molecular target: T3, FFAR1 (Homo sapiens, UniProt O14842); experiment: PathHunter β-arrestin assay; format: cell-based; conditions: screen, control agonist; DLD1, 37C, 4HR
T3 construct: purchased Eurofins DiscoverX (PathHunter gpcrMAX)
T3 sequence (O14842 whole entry): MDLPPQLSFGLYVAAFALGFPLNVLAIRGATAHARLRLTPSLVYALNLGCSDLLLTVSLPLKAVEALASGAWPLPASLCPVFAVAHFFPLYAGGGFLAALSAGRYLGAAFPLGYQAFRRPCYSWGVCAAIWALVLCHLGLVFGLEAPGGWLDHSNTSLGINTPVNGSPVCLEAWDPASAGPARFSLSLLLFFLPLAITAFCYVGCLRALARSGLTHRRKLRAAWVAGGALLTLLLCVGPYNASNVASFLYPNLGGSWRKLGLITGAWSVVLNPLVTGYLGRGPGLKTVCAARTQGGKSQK

GPR120 = molecular target: T4, GPR120 (Homo sapiens, UniProt Q5NUL3); experiment: PathHunter β-arrestin assay; format: cell-based; conditions: screen, control agonist; CHO, 37C, 2HR
T4 construct: purchased Eurofins DiscoverX (PathHunter gpcrMAX)

GPR92 = molecular target: T5, GPR92 (Homo sapiens, UniProt Q9H1C0); experiment: PathHunter β-arrestin assay; format: cell-based; conditions: screen, control agonist; CHO, RT, 3HR
T5 construct: purchased Eurofins DiscoverX (PathHunter gpcrMAX)
T5 sequence (Q9H1C0 whole entry): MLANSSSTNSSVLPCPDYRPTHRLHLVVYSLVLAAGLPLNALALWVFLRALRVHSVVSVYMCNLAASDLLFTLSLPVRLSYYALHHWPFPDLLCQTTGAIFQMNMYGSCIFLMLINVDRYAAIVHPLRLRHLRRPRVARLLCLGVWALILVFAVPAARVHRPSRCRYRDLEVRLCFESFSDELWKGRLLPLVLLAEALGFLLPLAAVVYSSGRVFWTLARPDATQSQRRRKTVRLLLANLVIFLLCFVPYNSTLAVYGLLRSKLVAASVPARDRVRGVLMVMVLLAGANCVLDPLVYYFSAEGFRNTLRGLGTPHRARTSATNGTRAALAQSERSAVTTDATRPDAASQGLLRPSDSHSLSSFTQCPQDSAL

EDG4 = molecular target: T6, EDG4 (Homo sapiens, UniProt Q9HBW0); experiment: PathHunter β-arrestin assay; format: cell-based; conditions: screen, control agonist; CHO, RT, 3HR
T6 construct: purchased Eurofins DiscoverX (PathHunter gpcrMAX)
T6 sequence (Q9HBW0 whole entry): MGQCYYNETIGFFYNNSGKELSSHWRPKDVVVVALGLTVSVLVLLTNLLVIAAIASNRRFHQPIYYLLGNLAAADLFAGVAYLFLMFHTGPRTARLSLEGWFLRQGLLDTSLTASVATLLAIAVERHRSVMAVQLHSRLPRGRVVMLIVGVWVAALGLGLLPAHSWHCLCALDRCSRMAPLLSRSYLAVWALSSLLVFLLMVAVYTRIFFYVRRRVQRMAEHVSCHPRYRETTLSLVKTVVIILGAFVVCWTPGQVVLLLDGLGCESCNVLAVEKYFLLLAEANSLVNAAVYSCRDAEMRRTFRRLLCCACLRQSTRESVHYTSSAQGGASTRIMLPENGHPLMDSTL

EDG7 = molecular target: T7, EDG7 (Homo sapiens, UniProt Q9UBY5); experiment: PathHunter β-arrestin assay; format: cell-based; conditions: screen, control agonist; CHO, RT, 3HR
T7 construct: purchased Eurofins DiscoverX (PathHunter gpcrMAX)
T7 sequence (Q9UBY5 whole entry): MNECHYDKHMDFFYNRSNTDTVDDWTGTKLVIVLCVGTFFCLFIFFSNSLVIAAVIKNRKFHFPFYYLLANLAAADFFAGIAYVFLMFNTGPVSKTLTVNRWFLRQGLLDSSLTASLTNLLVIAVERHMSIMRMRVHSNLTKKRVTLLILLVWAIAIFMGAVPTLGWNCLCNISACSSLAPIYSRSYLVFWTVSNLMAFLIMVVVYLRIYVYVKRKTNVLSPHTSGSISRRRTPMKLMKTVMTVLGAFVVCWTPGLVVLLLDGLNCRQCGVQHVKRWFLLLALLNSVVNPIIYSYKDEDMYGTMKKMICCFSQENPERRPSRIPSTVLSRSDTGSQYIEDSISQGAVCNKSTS

ADRA1B = molecular target: T8, ADRA1B (Homo sapiens, UniProt P35368); experiment: PathHunter β-arrestin assay; format: cell-based; conditions: screen, control agonist; CHO, 37C, 2HR
T8 construct: purchased Eurofins DiscoverX (PathHunter gpcrMAX)
T8 sequence (P35368 whole entry): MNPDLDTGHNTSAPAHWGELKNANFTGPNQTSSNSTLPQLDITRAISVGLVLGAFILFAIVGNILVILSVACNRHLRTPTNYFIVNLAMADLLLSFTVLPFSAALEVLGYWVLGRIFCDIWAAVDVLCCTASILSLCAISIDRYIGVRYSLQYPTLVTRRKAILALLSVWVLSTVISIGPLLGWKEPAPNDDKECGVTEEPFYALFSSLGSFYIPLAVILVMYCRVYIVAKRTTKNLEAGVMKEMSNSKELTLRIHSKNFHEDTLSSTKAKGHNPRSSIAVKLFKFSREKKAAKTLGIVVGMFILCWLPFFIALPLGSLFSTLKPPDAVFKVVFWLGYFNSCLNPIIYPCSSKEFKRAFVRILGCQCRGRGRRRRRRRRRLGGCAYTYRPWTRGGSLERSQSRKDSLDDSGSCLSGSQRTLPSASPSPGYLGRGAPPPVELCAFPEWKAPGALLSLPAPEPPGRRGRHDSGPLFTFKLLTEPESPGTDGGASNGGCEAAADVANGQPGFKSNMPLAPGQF

EDG1 = molecular target: T9, EDG1 (Homo sapiens, UniProt P21453); experiment: PathHunter β-arrestin assay; format: cell-based; conditions: screen, control agonist; CHO, 37C, 2HR
T9 construct: purchased Eurofins DiscoverX (PathHunter gpcrMAX)

EDG5 = molecular target: T10, EDG5 (Homo sapiens, UniProt O95136); experiment: PathHunter β-arrestin assay; format: cell-based; conditions: screen, control agonist; CHO, 37C, 2HR
T10 construct: purchased Eurofins DiscoverX (PathHunter gpcrMAX)
T10 sequence (O95136 whole entry): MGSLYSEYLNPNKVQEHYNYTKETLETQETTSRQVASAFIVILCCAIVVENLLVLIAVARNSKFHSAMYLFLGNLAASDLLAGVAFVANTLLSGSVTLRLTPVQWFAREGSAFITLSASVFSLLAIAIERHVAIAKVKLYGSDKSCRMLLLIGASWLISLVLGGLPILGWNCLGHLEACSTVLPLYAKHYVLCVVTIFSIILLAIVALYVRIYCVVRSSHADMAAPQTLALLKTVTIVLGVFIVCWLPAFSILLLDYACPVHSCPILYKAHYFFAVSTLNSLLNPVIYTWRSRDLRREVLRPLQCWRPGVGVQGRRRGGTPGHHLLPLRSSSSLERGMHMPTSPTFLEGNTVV

EDG3 = molecular target: T11, EDG3 (Homo sapiens, UniProt Q99500); experiment: PathHunter β-arrestin assay; format: cell-based; conditions: screen, control agonist; CHO, 37C, 2HR
T11 construct: purchased Eurofins DiscoverX (PathHunter gpcrMAX)
T11 sequence (Q99500 whole entry): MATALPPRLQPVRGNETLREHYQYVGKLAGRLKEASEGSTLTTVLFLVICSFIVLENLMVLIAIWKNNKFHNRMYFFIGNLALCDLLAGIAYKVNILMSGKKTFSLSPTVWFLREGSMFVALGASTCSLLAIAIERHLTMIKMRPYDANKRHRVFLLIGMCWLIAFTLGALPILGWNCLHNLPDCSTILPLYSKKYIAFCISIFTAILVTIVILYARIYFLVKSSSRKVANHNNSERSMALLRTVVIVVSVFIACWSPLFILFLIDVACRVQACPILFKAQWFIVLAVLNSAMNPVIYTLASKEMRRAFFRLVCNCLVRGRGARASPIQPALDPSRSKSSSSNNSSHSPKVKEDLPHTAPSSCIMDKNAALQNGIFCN

EDG6 = molecular target: T12, EDG6 (Homo sapiens, UniProt O95977); experiment: PathHunter β-arrestin assay; format: cell-based; conditions: screen, control agonist; CHO, 37C, 4HR
T12 construct: purchased Eurofins DiscoverX (PathHunter gpcrMAX)

GPR1 = molecular target: T13, GPR1 (Homo sapiens, UniProt P46091); experiment: PathHunter β-arrestin assay; format: cell-based; conditions: screen, control agonist; CHO, 37C, 2HR
T13 construct: purchased Eurofins DiscoverX (PathHunter gpcrMAX)
T13 sequence (P46091 1-355): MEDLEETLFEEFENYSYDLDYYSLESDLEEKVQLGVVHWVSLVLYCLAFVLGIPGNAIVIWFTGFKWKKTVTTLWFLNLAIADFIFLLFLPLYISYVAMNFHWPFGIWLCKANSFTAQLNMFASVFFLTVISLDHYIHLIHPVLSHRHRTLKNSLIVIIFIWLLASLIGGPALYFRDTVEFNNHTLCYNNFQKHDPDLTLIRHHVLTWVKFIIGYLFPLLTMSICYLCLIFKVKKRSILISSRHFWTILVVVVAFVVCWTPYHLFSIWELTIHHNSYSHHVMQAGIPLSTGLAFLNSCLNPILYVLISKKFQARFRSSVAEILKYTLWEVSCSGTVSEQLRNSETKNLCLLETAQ

GPR103 = molecular target: T14, GPR103 (Homo sapiens, UniProt Q96P65); experiment: PathHunter β-arrestin assay; format: cell-based; conditions: screen, control agonist; CHO, RT, 2HR
T14 construct: purchased Eurofins DiscoverX (PathHunter gpcrMAX)
T14 sequence (Q96P65 1-431): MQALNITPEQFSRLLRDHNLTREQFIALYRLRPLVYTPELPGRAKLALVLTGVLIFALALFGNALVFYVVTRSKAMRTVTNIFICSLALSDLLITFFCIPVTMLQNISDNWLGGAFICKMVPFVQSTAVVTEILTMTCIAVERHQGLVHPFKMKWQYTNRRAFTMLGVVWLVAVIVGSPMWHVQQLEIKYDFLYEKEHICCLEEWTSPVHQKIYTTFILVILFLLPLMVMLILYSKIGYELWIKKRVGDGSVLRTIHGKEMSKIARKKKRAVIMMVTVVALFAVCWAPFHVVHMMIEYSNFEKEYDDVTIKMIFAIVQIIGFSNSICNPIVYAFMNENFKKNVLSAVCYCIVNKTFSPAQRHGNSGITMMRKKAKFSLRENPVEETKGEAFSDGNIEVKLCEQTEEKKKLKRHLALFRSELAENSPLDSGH

FPRL1 = molecular target: T15, FPRL1 (Homo sapiens, UniProt P25090); experiment: PathHunter β-arrestin assay; format: cell-based; conditions: screen, control agonist; CHO, 37C, 2HR
T15 construct: purchased Eurofins DiscoverX (PathHunter gpcrMAX)

FPR1 = molecular target: T16, FPR1 (Homo sapiens, UniProt P21462); experiment: PathHunter β-arrestin assay; format: cell-based; conditions: control agonist
T16 sequence (P21462 1-350): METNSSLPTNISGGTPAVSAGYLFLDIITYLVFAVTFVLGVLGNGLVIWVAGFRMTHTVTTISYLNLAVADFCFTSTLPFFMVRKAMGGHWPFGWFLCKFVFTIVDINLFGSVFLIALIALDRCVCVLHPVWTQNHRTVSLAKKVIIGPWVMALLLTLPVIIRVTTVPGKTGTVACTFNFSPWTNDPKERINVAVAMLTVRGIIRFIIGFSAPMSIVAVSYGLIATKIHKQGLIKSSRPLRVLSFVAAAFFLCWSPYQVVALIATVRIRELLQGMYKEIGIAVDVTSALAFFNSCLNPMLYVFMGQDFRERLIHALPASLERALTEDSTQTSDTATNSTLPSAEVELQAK

CXCR6 = molecular target: T17, CXCR6 (Homo sapiens, UniProt O00574); experiment: PathHunter β-arrestin assay; format: cell-based; conditions: screen, control agonist; HEK, 37C, 2HR
T17 construct: purchased Eurofins DiscoverX (PathHunter gpcrMAX)
T17 sequence (O00574 whole entry): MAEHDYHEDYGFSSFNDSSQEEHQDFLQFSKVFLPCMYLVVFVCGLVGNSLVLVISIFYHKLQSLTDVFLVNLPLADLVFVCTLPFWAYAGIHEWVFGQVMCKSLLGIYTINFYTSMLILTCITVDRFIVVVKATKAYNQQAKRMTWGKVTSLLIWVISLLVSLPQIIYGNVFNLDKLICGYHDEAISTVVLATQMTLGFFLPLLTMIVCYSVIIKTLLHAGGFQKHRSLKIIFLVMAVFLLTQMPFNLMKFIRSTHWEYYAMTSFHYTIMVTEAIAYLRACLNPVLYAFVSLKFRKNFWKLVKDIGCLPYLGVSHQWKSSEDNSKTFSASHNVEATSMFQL

[1] = follow-up concentration-response assays

T1 sequence (P49019 whole entry): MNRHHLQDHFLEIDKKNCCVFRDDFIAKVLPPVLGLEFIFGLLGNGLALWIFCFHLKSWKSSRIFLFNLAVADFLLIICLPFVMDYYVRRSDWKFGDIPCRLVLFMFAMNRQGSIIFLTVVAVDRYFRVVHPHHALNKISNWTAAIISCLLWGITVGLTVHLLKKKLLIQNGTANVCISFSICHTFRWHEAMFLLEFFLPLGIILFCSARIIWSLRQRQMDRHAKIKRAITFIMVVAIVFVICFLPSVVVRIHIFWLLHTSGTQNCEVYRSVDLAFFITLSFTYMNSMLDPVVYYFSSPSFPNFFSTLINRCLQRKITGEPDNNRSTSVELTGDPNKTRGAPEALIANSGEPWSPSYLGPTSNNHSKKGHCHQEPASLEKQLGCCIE

Molecule: CCCCCC(O)CC(=O)O (stereo not drawn) [3-Hydroxyoctanoic Acid]
- EC80 (GPR109B): 904000 nM

Molecule: C[C@H](CCCC(C)(C)O)[C@H]1CC[C@H]2[C@@H]3[C@H](O)C=C4C[C@@H](O)CC[C@]4(C)[C@H]3CC[C@]12C [7a,25-Dihydroxycholesterol]
- EC80 (EBI2): 23.3 nM

Molecule: NCCc1ccc(O)c(O)c1 [Dopamine]
- EC80 (DRD2S): 300 nM
- EC80 (DRD2L; [1]): 200 nM
- EC80 (DRD2L; screen, CHO, 37C, 2HR): 100 nM

Molecule: O=C(O)CCc1ccc(NCc2cccc(Oc3ccccc3)c2)cc1 [GW9508]
- EC80 (FFAR1): 402 nM
- EC80 (GPR120): 21500 nM

Molecule: CCCCCCCC/C=C\CCCCCCCC(=O)OC[C@@H](O)COP(=O)(O)O [Oleoyl LPA]
- EC80 (GPR92): 4280 nM
- EC80 (EDG4): 1960 nM
- EC80 (EDG7): 3480 nM

Molecule: CNC[C@H](O)c1cccc(O)c1 [Phenylephrine]
- EC80 (ADRA1B): 133 nM

Molecule: CCCCCCCCCCCCC/C=C/[C@@H](O)[C@@H](N)COP(=O)(O)O [S-1-P]
- EC80 (EDG1): 117 nM
- EC80 (EDG5): 119 nM
- EC80 (EDG3): 194 nM
- EC80 (EDG6): 180 nM

Molecule: Chemerin: control agonist
- EC80 (GPR1): 4.61 nM

Molecule: QRFP-26
- EC80 (GPR103): 14.2 nM

Molecule: WKYMVm-NH2
- EC80 (FPRL1): 3.91 nM
- EC80 (FPR1; [1]): 8.52 nM
- EC80 (FPR1; screen, CHO, 37C, 2HR): 8.52 nM

B1: CXCL16: control agonist (protein, UniProt Q9H2A7 30-254, looked up)
C-X-C motif chemokine 16: NEGSVTGSCYCGKRISSDSPPSVQFMNRLRKHLRAYHRCLYYTRFQLLSWSVCGGNKDPWVQELMSCLDLKECGHAYSGIVAHQKHLLPTSPPISQASEGASSDIHTPAQMLLSTLQSTQRPTLPVGSLSSDKELTRPNETTIHTAGHSLAAGPEAGENQKQPEKNAGPTARTSATVPVLCLLAIIFILTAALSYVLCKRRRGQSPQSSPDLPVHYIPVAPDSNT
- EC80 (CXCR6): 1.39 nM
